Assays:
[1] = biological target: cytoplasmic domain of VraS (VraS-C) (Staphylococcus aureus, UniProt Q99SZ7); assay: biochemical; format: binding; conditions: new run with His-tagged VraS; NB = No Binding; read-out: KD VraS
[2] = biological target: PurC (unrelated protein, control) (Bacillus anthracis, UniProt Q81ZH5); format: binding; conditions: read-out: KD PurC (control)
VraR = VraR (Staphylococcus aureus, UniProt Q7A4R9); assay: biochemical; format: binding; conditions: His-tagged VraR; NB = No Binding
Chain of VraR (Q7A4R9 whole entry): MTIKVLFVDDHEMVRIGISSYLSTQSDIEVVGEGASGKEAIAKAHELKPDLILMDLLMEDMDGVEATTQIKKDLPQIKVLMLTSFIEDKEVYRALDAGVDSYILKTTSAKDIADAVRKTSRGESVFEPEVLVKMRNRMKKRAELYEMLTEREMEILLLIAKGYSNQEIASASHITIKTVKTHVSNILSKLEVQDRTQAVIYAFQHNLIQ

[3] = system: vraSR promoter (Pvra-lux reporter in strain 923); format: cell-based, Staphylococcus aureus; conditions: for RL Ox avg: Top 40 library, with oxacillin, compound at maximum non-GI conc; for vraSR repressing synergist: overall class from syn and rep
Protocol: In the secondary screen each microtiter plate contained either cells in TSB alone (16 replicates), cells with oxacillin (2 μg/mL, 31 replicates), or cells with test compound and oxacillin (2 μg/mL, 49 wells). Each compound was assayed in four separate biological replicates. […]

[4] = system: test strain 923 pPvra-lux; assay: Secondary screen / synergy confirmation of Top 40, relative growth with oxacillin; format: cell-based, Staphylococcus aureus; conditions: Top 40 library, compound at maximum non-GI conc
Protocol: In the secondary screen each microtiter plate contained either cells in TSB alone (16 replicates), cells with oxacillin (2 μg/mL, 31 replicates), or cells with test compound and oxacillin (2 μg/mL, 49 wells). Each compound was assayed in four separate biological replicates.
Synergy Confirmation of “Top 40”. […]

[5] = system: vraSR promoter (Pvra-lux reporter in strain 923); assay: Primary screen, relative luminescence (vraSR expression); conditions: primary screen, compound 10 μM with oxacillin 2 μg/mL; <0.50 = vraSR repressed = hit
[6] = system: test strain 923 pPvra-lux (USA300 MRSA); assay: Primary screen, relative growth in presence of oxacillin; conditions: compound 10 μM with oxacillin 2 μg/mL, absorbance 24 h, <0.50 = dead cells = hit
[7] = system: test strain (923 pPvra-lux); assay: Growth inhibition by compound alone (maximum non-growth-inhibitory concentration); format: cell-based, Staphylococcus aureus; conditions: compound alone; maximum concentration where it did NOT inhibit growth
multiple strains of MRSA = assay: MICs (minimal inhibitory concentrations) vs multiple strains of MRSA; format: cell-based, Staphylococcus aureus

Chain of cytoplasmic domain of VraS (VraS-C) (Q99SZ7 70-347): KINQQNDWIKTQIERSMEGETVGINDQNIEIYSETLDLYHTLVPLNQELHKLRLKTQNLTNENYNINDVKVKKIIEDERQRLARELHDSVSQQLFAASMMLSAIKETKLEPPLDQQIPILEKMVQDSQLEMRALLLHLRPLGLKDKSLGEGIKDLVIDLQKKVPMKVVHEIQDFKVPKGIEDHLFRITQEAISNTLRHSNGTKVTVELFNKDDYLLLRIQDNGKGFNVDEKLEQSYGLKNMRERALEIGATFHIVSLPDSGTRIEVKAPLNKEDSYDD
Chain of PurC (unrelated protein, control) (Q81ZH5 whole entry, looked up): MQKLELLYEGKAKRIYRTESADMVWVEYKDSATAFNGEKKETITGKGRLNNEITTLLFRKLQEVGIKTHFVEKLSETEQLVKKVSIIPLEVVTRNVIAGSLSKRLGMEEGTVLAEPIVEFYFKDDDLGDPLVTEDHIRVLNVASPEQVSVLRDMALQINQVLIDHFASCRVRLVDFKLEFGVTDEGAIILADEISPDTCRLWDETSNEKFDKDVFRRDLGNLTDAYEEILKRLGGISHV

CS(=O)(=O)c1ccc(-c2nnc(NC(=O)c3ccc(Cl)s3)o2)cc1 [F2645-0790]
Kd [1]: > 100 µM
Kd [2]: > 100 µM
Kd (VraR): > 100 µM

Cc1ccc(-c2nnc(NC(=O)c3ccccc3Cl)o2)c(C)c1 [F2518-0150]
Kd [1]: > 100 µM
Kd [2]: > 100 µM
Kd (VraR): > 100 µM

O=C(Nc1nnc(-c2ccc(Br)cc2)o1)c1cccc(C(F)(F)F)c1 [F2518-0477]
Kd [1]: > 100 µM
Kd [2]: > 100 µM
Kd (VraR): > 100 µM

Cc1ccc(-c2nnc(NC(=O)c3nc4ccccc4s3)o2)c(C)c1 [F2518-0183]
Kd [1]: > 100 µM
Kd [2]: > 100 µM
Kd (VraR): > 100 µM

Fc1cccc(Nc2nc(Nc3ccc(F)c(Cl)c3)nc(N3CCOCC3)n2)c1 [F2703-0396]
RL Ox avg [3]: 0.34
vraSR repressing synergist [3]: 1. confirmed
RG Ox avg [4]: 0.01
RL avg (relative luminescence) [5]: 0.19
RG avg (relative growth) [6]: 0.06
maximum non-GI conc [7]: 400 µg/mL
Ox MIC in presence of compound (multiple strains of MRSA; isolate 923, SCCmec IV, ST 8, compound at 2 mg/L): <0.25 µg/mL
Ox MIC in presence of compound (multiple strains of MRSA; isolate 1176, SCCmec II, ST 231, compound at 2 mg/L): <0.5 µg/mL
Ox MIC in presence of compound (multiple strains of MRSA; isolate 2169, SCCmec IV, ST 72, compound at 2 mg/L): <0.25 µg/mL
Ox MIC in presence of compound (multiple strains of MRSA; isolate 8004-01, SCCmec III, ST 239, compound at 2 mg/L): 64 µg/mL
Ox MIC in presence of compound (multiple strains of MRSA; isolate 8010-01, SCCmec IV, ST 8, compound at 2 mg/L): <0.25 µg/mL
Ox MIC in presence of compound (multiple strains of MRSA; isolate 8227-01, SCCmec IV, ST 87, compound at 2 mg/L): <0.06 µg/mL
Ox MIC in presence of compound (multiple strains of MRSA; isolate 11095, SCCmec II, ST 105, compound at 2 mg/L): <2 µg/mL
Ox MIC in presence of compound (multiple strains of MRSA; isolate 13113, SCCmec II, ST 5, compound at 2 mg/L): <0.13 µg/mL
Ox MIC in presence of compound (multiple strains of MRSA; isolate 13354, SCCmec IV, ST 5, compound at 2 mg/L): <0.13 µg/mL
Ox MIC in presence of compound (multiple strains of MRSA; isolate 14315, SCCmec IV, ST 1, compound at 2 mg/L): <0.5 µg/mL
Ox MIC in presence of compound (multiple strains of MRSA; isolate Q2461, SCCmec VT, ST 59, compound at 2 mg/L): <0.13 µg/mL

COc1cccc(-c2nnc(NC(=O)c3cccc(F)c3)o2)c1 [F1374-0327]
Kd [1]: > 100 µM
Kd [2]: > 100 µM
Kd (VraR): > 100 µM

CC(C)(C)c1csc(NC(=O)c2cccc(NS(=O)(=O)c3ccc(F)cc3)c2)n1 [F2619-0556]
RL Ox avg [3]: 0.28
vraSR repressing synergist [3]: 1. confirmed
RG Ox avg [4]: 0.01
RL avg (relative luminescence) [5]: 0.52
RG avg (relative growth) [6]: 0.25
maximum non-GI conc [7]: 400 µg/mL
Ox MIC in presence of compound (multiple strains of MRSA; isolate 923, SCCmec IV, ST 8, compound at 4 mg/L): <0.25 µg/mL
Ox MIC in presence of compound (multiple strains of MRSA; isolate 1176, SCCmec II, ST 231, compound at 4 mg/L): <0.5 µg/mL
Ox MIC in presence of compound (multiple strains of MRSA; isolate 2169, SCCmec IV, ST 72, compound at 4 mg/L): <0.25 µg/mL
Ox MIC in presence of compound (multiple strains of MRSA; isolate 8004-01, SCCmec III, ST 239, compound at 4 mg/L): <4 µg/mL
Ox MIC in presence of compound (multiple strains of MRSA; isolate 8010-01, SCCmec IV, ST 8, compound at 4 mg/L): <0.25 µg/mL
Ox MIC in presence of compound (multiple strains of MRSA; isolate 8227-01, SCCmec IV, ST 87, compound at 4 mg/L): <0.06 µg/mL
Ox MIC in presence of compound (multiple strains of MRSA; isolate 11095, SCCmec II, ST 105, compound at 4 mg/L): 128 µg/mL
Ox MIC in presence of compound (multiple strains of MRSA; isolate 13113, SCCmec II, ST 5, compound at 4 mg/L): <0.13 µg/mL
Ox MIC in presence of compound (multiple strains of MRSA; isolate 13354, SCCmec IV, ST 5, compound at 4 mg/L): <0.13 µg/mL
Ox MIC in presence of compound (multiple strains of MRSA; isolate 14315, SCCmec IV, ST 1, compound at 4 mg/L): <0.5 µg/mL
Ox MIC in presence of compound (multiple strains of MRSA; isolate Q2461, SCCmec VT, ST 59, compound at 4 mg/L): 1 µg/mL

O=C(Nc1nnc(-c2cc(Cl)ccc2Cl)o1)c1ccc(Cl)s1 [F2518-0042]
Kd [1]: > 100 µM
Kd [2]: > 100 µM
Kd (VraR): > 100 µM

O=C(Nc1nnc(-c2ccc(Br)cc2)o1)c1sc2ccccc2c1Cl [F2518-0484]
Kd [1]: > 100 µM
Kd [2]: > 100 µM
Kd (VraR): > 100 µM
